One test relates to PfSTART1. The test is described as follows: PfSTART1 knock-down by glucosamine (glmS riboswitch), Western blot densitometry. As to conditions: 2.5 mM GlcN; for START densitometry, Norm 0 mM [EXP2]: one value per biological replicate; for START densitometry, norm 0/EXP2: START band normalised to EXP2, then to 0 mM GlcN of the same line; for START densitometry, norm 0/EXP2 / START densitometry, norm 0/HSP / START densitometry, norm 3D7, EXP2 / START densitometry, norm 3D7, HSP70: 3 biological replicates; for START densitometry, norm 0/HSP: START band normalised to HSP70, then to 0 mM GlcN of the same line; for START densitometry, norm 3D7, EXP2: START/EXP2 relative to 3D7 at 0 mM GlcN (=1.00E+02); for START densitometry, norm 3D7, HSP70: START/HSP70 relative to 3D7 at 0 mM GlcN (=1.00E+02); for PfSTART1 knockdown: 48 h. The test is classed as cell-based, Plasmodium falciparum. As to the method:
Parasites were prepared for the stage of interest and proteins were extracted using a saponin-lysis (unless indicated otherwise). For knock-down assays, parasites were exposed to 0 or 2.5 mM GlcN for 48 h (starting from late schizont/early rings): the day before harvesting schizonts, 30 nM ML10 (LifeArc) was also added to the cultures to block egress. Infected red blood cells were lysed 10 min on ice with 0.1% saponin in PBS complemented with 1x Protease Inhibitors Cocktail (Roche; PBS + PI). Parasites were pelleted and washed with PBS + PI to remove haemoglobin. […] Protein samples were centrifuged at 15,000 g, then run on a pre-cast 4-12% NuPAGE Bis-Tris gel (Invitrogen) and proteins were transferred onto a nitrocellulose membrane using iBlot (Invitrogen). Membranes were exposed to the primary antibody overnight at 4 °C, to the secondary antibody 1 h at room temperature, and fluorescence was measured using an Odyssey imaging system, which was also used to measure densitometry. The list of antibodies used, their dilution, and origins are described in Table S3.

The subject of test [1] is parasitophorous vacuole membrane of newly invaded merozoites. The test can be described thus: Lattice light sheet imaging and vacuole tracking. In kind it is cell-based, Plasmodium falciparum. The conditions noted are these: 60 nM W-991 vs DMSO. As for the experimental part: Parasites were sorbitol synchronised at days 5 and 2 prior to filming. To prepare the parasites for filming, culture was loaded on LS columns attached to MACS MultiStand (Miltenyi Biotec) to isolate late-stage parasites. Imaging medium was prepared by adding 10 μM Trolox (Santa Cruz 53188-07-1) to the culture medium. To compare the effect of drug treatment on parasite invasion, either 60 nM of W-991 or an equivalent DMSO concentration was added to the imaging medium. RBCs were resuspended at 0.5% hematocrit in RPMI-HEPES supplemented with 0.2% sodium bicarbonate and stained with 1.5 μM Di-4-[…] (Invitrogen D36802) membrane marker for 1 h at 37 °C. The stained RBCs were then washed 3 x and resuspended in imaging medium. Purified schizonts were resuspended in culture medium and incubated with 25 nM Mitotracker Deep Red FM (Invitrogen M22426) for 30 min at 37 °C, 5% CO2. The stained schizonts were then pelleted and the supernatant removed before resuspending the schizonts in the imaging medium. Before imaging, imaging medium with drug was loaded to a well and imaging medium with DMSO control was loaded to another well on an 8-well glass bottom plate (Ibidi 80807). Stained RBCs and stained schizonts were then added to each well and let settle for 30 min. The imaging experiments were performed on Zeiss Lattice Lightsheet 7. […]

Several values for one entry are separate records, joined by “and”; a condition that tells them apart may be missing. Identical values can stand only once.

`N[C@H]1C(O)O[C@H](CO)[C@@H](O)[C@@H]1O` (stereo partly shown) [GlcN, glucosamine]: the “START densitometry, Norm 0 mM [EXP2]” value was 1.02E+02 and 1.14E+02 and 9.72E+01 in the test with PfSTART1 (3D7); 5.39E+01 and 7.05E+01 and 4.74E+01 in the test on PfSTART1 (SLI-N309K); 2.99E+01 and 2.84E+01 and 3.23E+01 with PfSTART1 (SLI-N330K); 5.15E+01 and 2.89E+01 and 3.95E+01 in the test with PfSTART1 (SLI-WT). Moreover, the “START densitometry, norm 0/EXP2” value in the test on PfSTART1 (3D7 parasites) is 1.29E+02 and 9.38E+01 and 8.16E+01; in the test with PfSTART1 (CR-N309K parasites) it was 1.17E+01 and 2.98E+01 and 1.90E+01; with PfSTART1 (CR-N330K parasites), 1.02E+01 and 3.10E+01 and 7.15E+00; with PfSTART1 (CR-WT parasites) it was 2.42E+01 and 2.14E+01 and 2.95E+01. The “START densitometry, norm 0/HSP” value in the test with PfSTART1 (3D7 parasites) was 1.32E+02 and 1.01E+02 and 9.77E+01; with PfSTART1 (CR-N309K parasites) it was 2.14E+01 and 2.66E+01 and 2.27E+01; with PfSTART1 (CR-N330K parasites), 2.77E+01 and 2.71E+01 and 1.13E+01; in the test on PfSTART1 (CR-WT parasites) it was 2.70E+01 and 2.58E+01 and 2.79E+01. Further, the “START densitometry, norm 3D7, EXP2” value with PfSTART1 (3D7 parasites) is 1.29E+02 and 9.38E+01 and 8.16E+01; with PfSTART1 (CR-N309K parasites), 1.40E+01 and 3.50E+01 and 1.71E+01; with PfSTART1 (CR-N330K parasites) it was 1.13E+01 and 3.35E+01 and 1.19E+01; in the test with PfSTART1 (CR-WT parasites), 3.52E+01 and 2.52E+01 and 2.73E+01. The “START densitometry, norm 3D7, HSP70” value in the test on PfSTART1 (3D7 parasites) is 1.32E+02 and 1.01E+02 and 9.77E+01; with PfSTART1 (CR-N309K parasites), 1.73E+01 and 1.93E+01 and 2.63E+01; with PfSTART1 (CR-N330K parasites), 2.31E+01 and 2.22E+01 and 2.51E+01; in the test with PfSTART1 (CR-WT parasites), 2.33E+01 and 2.02E+01 and 4.40E+01. The PfSTART1 knockdown came out at 81% in the test with PfSTART1 (CR-N309K schizonts); 84% in the test on PfSTART1 (CR-N330K schizonts); 75% in the test with PfSTART1 (CR-WT schizonts); 43% with PfSTART1 (SLI-N309K schizonts); 70% with PfSTART1 (SLI-N330K schizonts); 60% in the test on PfSTART1 (SLI-WT schizonts).
For `CC(C)(Nc1ccc(Cl)c(S(=O)(=O)N2CCOCC2)c1)C(=O)Nc1ccc(F)c(Cl)c1` [W-991], the “shape/sphericity of the PVM of newly invaded merozoites” value in test [1] (p = 0.045 at 15 min) is listed as “remained spherical”. The “mean vacuole surface area and volume of the PVM” value in test [1] (p = 0.109, p = 0.129) is “reduced in W-991 but this did not reach significance”.

The values are drawn from paper PMC11189555, “Aryl amino acetamides prevent Plasmodium falciparum ring development via targeting the lipid-transfer protein PfSTART1” (Nature Communications, 2024).
